Two molecules from article PMC3775607 (Chembiochem : a European journal of chemical biology, 2012) can be followed below.

The target in assay [1] is T1, p38α (Mus musculus, UniProt P47811). In words: competition with covalent DRS probe […] at […], in-gel fluorescence. In kind it is binding.
The target in assay [2] is T1, p38α. In words: radiometric kinase assay with GST-ATF2. The format is biochemical.

The structures appear in SMILES notation.

T1 sequence (P47811 2-360): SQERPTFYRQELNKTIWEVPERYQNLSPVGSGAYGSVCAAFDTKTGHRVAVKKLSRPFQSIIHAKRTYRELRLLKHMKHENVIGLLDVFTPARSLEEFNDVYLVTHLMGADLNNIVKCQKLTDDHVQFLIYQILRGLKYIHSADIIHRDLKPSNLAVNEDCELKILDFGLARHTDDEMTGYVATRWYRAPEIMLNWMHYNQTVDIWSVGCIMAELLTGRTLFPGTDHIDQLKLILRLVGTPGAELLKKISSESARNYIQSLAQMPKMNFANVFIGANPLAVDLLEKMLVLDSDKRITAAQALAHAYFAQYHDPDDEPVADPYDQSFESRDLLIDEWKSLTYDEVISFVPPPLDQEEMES

In the case of `O=C(/C=C/c1ccc(O)c(O)c1)OCCc1ccccc1` [CAPE, caffeic acid phenethyl ester], at p38α [1], the “competition with covalent DRS probe 3 at 200 μM, in-gel fluorescence” value was “rooperol shows the strongest inhibition, followed closely by the honey bee propolis-derived caffeic acid phenethyl ester (CAPE”. The term IC50 denotes the concentration at which inhibition is half-maximal. A lower IC50 goes with inhibition by little substance. On to `Oc1ccc(C#CC/C=C/c2ccc(O)c(O)c2)cc1O` [rooperol], for which the IC50 on p38α [2] is 18.6 µM. This lies in the double-digit micromolar range.
